25 compounds from the supplement of paper PMC10627819 can be followed below.

Assay in all cases: Bliss interaction score (quartile over a dose matrix) (fitness difference); higher = more antagonism (negative = synergy)
One test has as its system S. aureus Newman. In short, it runs like this: (§1)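 Values were capped at 1 after dividing OD595 at stationary-phase entry by the plate's robust no-drug mean. This ratio is fitness, and single-drug fitness was inferred from the combination data. The Bliss score is observed minus product-expected fitness, given as quartiles over technical, biological and donor/recipient replicates.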

The test system of the next test is S. pneumoniae D39V. The method, boiled down:
as §1

The test system of a further test is S. aureus DSM 20231. In short, it runs like this:
as §1

In another test the test system is B. subtilis 168. The method, boiled down:
as §1
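Also: first quartile when negative (synergy) and third quartile when positive (antagonism).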

Take `CC1(C)S[C@@H]2[C@H](NC(=O)[C@H](N)c3ccc(O)cc3)C(=O)N2[C@H]1C(=O)O` [Amoxicillin] + CN[C@H](CC(C)C)C(=O)N[C@H]1C(=O)N[C@@H](CC(N)=O)C(=O)N[C@H]2C(=O)N[C@H]3C(=O)N[C@H](C(=O)N[C@H](C(=O)O)c4cc(O)cc(O)c4-c4cc3ccc4O)[C@H](O[C@H]3C[C@](C)(N)[C@@H](O)[C@H](C)O3)c3ccc(c(Cl)c3)Oc3cc2cc(c3O[C@@H]2O[C@H](CO)[C@@H](O)[C@H](O)[C@H]2O[C@H]2C[C@](C)(NCc3ccc(-c4ccc(Cl)cc4)cc3)[C@@H](O)[C@H](C)O2)Oc2ccc(cc2Cl)[C@H]1O [Oritavancin]: the Bliss interaction score was 0.131 in the test on S. aureus Newman, -0.0312 in the test with S. pneumoniae D39V, 0.0659 with S. aureus DSM 20231 and 0.0439 with B. subtilis 168.

In the case of `Cc1ccc(-c2cc(C(F)(F)F)nn2-c2ccc(S(N)(=O)=O)cc2)cc1` [Celecoxib] + CC[C@H]1OC(=O)[C@H](C)C(=O)[C@H](C)[C@@H](O[C@@H]2O[C@H](C)C[C@H](N(C)C)[C@H]2O)[C@](C)(OC)C[C@@H](C)C(=O)[C@H](C)[C@H]2N(CCCCn3cnc(-c4cccnc4)c3)C(=O)O[C@]12C [Telithromycin], the Bliss interaction score with S. aureus DSM 20231 was -0.162.

`Cc1ccc(-c2cc(C(F)(F)F)nn2-c2ccc(S(N)(=O)=O)cc2)cc1` [Celecoxib] + CN(C)C(=O)C(CCN1CCC(O)(c2ccc(Cl)cc2)CC1)(c1ccccc1)c1ccccc1 [Loperamide]: the Bliss interaction score in the test with S. aureus DSM 20231 was -0.452. Still for that read-out and setting: in the case of `CCN(CC)C(=O)/C(C#N)=C/c1cc(O)c(O)c([N+](=O)[O-])c1` [Entacapone] + CC(=O)NC[C@H]1CN(c2ccc(N3CCOCC3)c(F)c2)C(=O)O1 [Linezolid] it was -0.178; in that of `CCN(CC)C(=O)/C(C#N)=C/c1cc(O)c(O)c([N+](=O)[O-])c1` [Entacapone] + CN1C2=CC=CC=C2N=C3C1=CC=CC3=O [Pyocyanin], -0.283; in that of `CCN(CC)C(=O)/C(C#N)=C/c1cc(O)c(O)c([N+](=O)[O-])c1` [Entacapone] + CO[C@@]12[C@H](COC(N)=O)C3=C(C(=O)C(C)=C(N)C3=O)N1C[C@@H]1N[C@@H]12 [MitomycinC], 0.176.

For the compound `C[C@]12CC[C@@H]3c4ccc(O)cc4CC[C@H]3[C@@H]1CC[C@@H]2O` [Estradiol] + CC1(C)S[C@@H]2[C@H](NC(=O)Cc3ccccc3)C(=O)N2[C@H]1C(=O)O [PenicillinG], the Bliss interaction score in the test with S. aureus DSM 20231 stood at 0.255. Still for that read-out and setting: then `C[C@]12CC[C@@H]3c4ccc(O)cc4CC[C@H]3[C@@H]1CC[C@@H]2O` [Estradiol] + CC[C@H]1OC(=O)[C@H](C)C(=O)[C@H](C)[C@@H](O[C@@H]2O[C@H](C)C[C@H](N(C)C)[C@H]2O)[C@](C)(OC)C[C@@H](C)C(=O)[C@H](C)[C@H]2N(CCCCn3cnc(-c4cccnc4)c3)C(=O)O[C@]12C [Telithromycin], with 0.268; and `C[C@]12CC[C@@H]3c4ccc(O)cc4CC[C@H]3[C@@H]1CC[C@@H]2O` [Estradiol] + CO[C@@]12[C@H](COC(N)=O)C3=C(C(=O)C(C)=C(N)C3=O)N1C[C@@H]1N[C@@H]12 [MitomycinC], with 0.179.

In the case of `C[C@]12CC[C@@H]3c4ccc(O)cc4CC[C@H]3[C@@H]1CC[C@@H]2O` [Estradiol] + COc1cc(Cc2cnc(N)nc2N)cc(OC)c1OC [Trimethoprim], the Bliss interaction score in the test on S. aureus DSM 20231 is 0.263. On the same count and under the same terms, in the case of `C[C@H]1COc2c(N3CCN(C)CC3)c(F)cc3c(=O)c(C(=O)O)cn1c23` [Levofloxacin] + Cc1c(Cl)cccc1Nc1ccccc1C(=O)O [Tolfenamic] it was -0.164; in that of `CN(C)C(=O)C(CCN1CCC(O)(c2ccc(Cl)cc2)CC1)(c1ccccc1)c1ccccc1` [Loperamide] + CC(C)(O)c1ccccc1CC[C@@H](SCC1(CC(=O)O)CC1)c1cccc(/C=C/c2ccc3ccc(Cl)cc3n2)c1 [Montelukast], -0.28; in that of `CN(C)C(=O)C(CCN1CCC(O)(c2ccc(Cl)cc2)CC1)(c1ccccc1)c1ccccc1` [Loperamide] + CCCSc1nc(N[C@@H]2C[C@H]2c2ccc(F)c(F)c2)c2nnn([C@@H]3C[C@H](OCCO)[C@@H](O)[C@H]3O)c2n1 [Ticagrelor], -0.453. Still for that read-out and setting: then `CN(C)C(=O)C(CCN1CCC(O)(c2ccc(Cl)cc2)CC1)(c1ccccc1)c1ccccc1` [Loperamide] + CCOC(=O)N1CCC(=C2c3ccc(Cl)cc3CCc3cccnc32)CC1 [Loratadine], with -0.278. Still for that read-out and setting: then `CN(C)C(=O)C(CCN1CCC(O)(c2ccc(Cl)cc2)CC1)(c1ccccc1)c1ccccc1` [Loperamide] + CN1CCN(C2=Nc3ccccc3Oc3ccc(Cl)cc32)CC1 [Loxapine], with 0.122; and `CN(C)C(=O)C(CCN1CCC(O)(c2ccc(Cl)cc2)CC1)(c1ccccc1)c1ccccc1` [Loperamide] + CN(Cc1cnc2nc(N)nc(N)c2n1)c1ccc(C(=O)N[C@@H](CCC(=O)O)C(=O)O)cc1 [Methotrexate], with -0.309; and `CN(C)C(=O)C(CCN1CCC(O)(c2ccc(Cl)cc2)CC1)(c1ccccc1)c1ccccc1` [Loperamide] + C[C@H]1C[C@@H]2[C@H]([C@@H](O)C[C@@]3(C)[C@H]2CC[C@]3(O)C(=O)CO)[C@@]2(C)C=CC(=O)C=C12 [Methylprednisolone], with -0.341. In the case of `CN(C)C(=O)C(CCN1CCC(O)(c2ccc(Cl)cc2)CC1)(c1ccccc1)c1ccccc1` [Loperamide] + O=C(O)Cc1cc(I)c(Oc2ccc(O)c(I)c2)c(I)c1 [Tiratricol], the Bliss interaction score with S. aureus DSM 20231 is 0.751.

`CN(C)C(=O)C(CCN1CCC(O)(c2ccc(Cl)cc2)CC1)(c1ccccc1)c1ccccc1` [Loperamide] + O=c1c(O)c(-c2ccc(O)c(O)c2)oc2cc(O)cc(O)c12 [Quercetin]: in the test on S. aureus DSM 20231, the Bliss interaction score was 0.242. Same read-out and setting: in the case of `C[C@H]1C[C@@H]2[C@H]([C@@H](O)C[C@@]3(C)[C@H]2CC[C@]3(O)C(=O)CO)[C@@]2(C)C=CC(=O)C=C12` [Methylprednisolone] + CC[C@H]1OC(=O)[C@H](C)C(=O)[C@H](C)[C@@H](O[C@@H]2O[C@H](C)C[C@H](N(C)C)[C@H]2O)[C@](C)(OC)C[C@@H](C)C(=O)[C@H](C)[C@H]2N(CCCCn3cnc(-c4cccnc4)c3)C(=O)O[C@]12C [Telithromycin] it was -0.356; in that of `CCCSc1nc(N[C@@H]2C[C@H]2c2ccc(F)c(F)c2)c2nnn([C@@H]3C[C@H](OCCO)[C@@H](O)[C@H]3O)c2n1` [Ticagrelor] + CC1=C\[C@@H](O)CC(=O)Cc2nc(co2)C(=O)N2CCC=C2C(=O)O[C@H](C(C)C)[C@H](C)/C=C/C(=O)NC\C=C\1 [Virginiamycin M1], 0.253. Same read-out and setting: then `CCCSc1nc(N[C@@H]2C[C@H]2c2ccc(F)c(F)c2)c2nnn([C@@H]3C[C@H](OCCO)[C@@H](O)[C@H]3O)c2n1` [Ticagrelor] + CN(C)c1cc(NC(=O)CNC(C)(C)C)c(O)c2c1C[C@H]1C[C@H]3[C@H](N(C)C)C(O)=C(C(N)=O)C(=O)[C@@]3(O)C(O)=C1C2=O [Tigecycline], with 0.216; and `CCCSc1nc(N[C@@H]2C[C@H]2c2ccc(F)c(F)c2)c2nnn([C@@H]3C[C@H](OCCO)[C@@H](O)[C@H]3O)c2n1` [Ticagrelor] + CN[C@H](CC(C)C)C(=O)N[C@H]1C(=O)N[C@@H](CC(N)=O)C(=O)N[C@H]2C(=O)N[C@H]3C(=O)N[C@H](C(=O)N[C@H](C(=O)O)c4cc(O)cc(O)c4-c4cc3ccc4O)[C@H](O)c3ccc(c(Cl)c3)Oc3cc2cc(c3O[C@@H]2O[C@H](CO)[C@@H](O)[C@H](O)[C@H]2O[C@H]2C[C@](C)(N)[C@H](O)[C@H](C)O2)Oc2ccc(cc2Cl)[C@H]1O [Vancomycin], with 0.257; and `CCCSc1nc(N[C@@H]2C[C@H]2c2ccc(F)c(F)c2)c2nnn([C@@H]3C[C@H](OCCO)[C@@H](O)[C@H]3O)c2n1` [Ticagrelor] + COc1cc(Cc2cnc(N)nc2N)cc(OC)c1OC [Trimethoprim], with -0.152. As for `CCCSc1nc(N[C@@H]2C[C@H]2c2ccc(F)c(F)c2)c2nnn([C@@H]3C[C@H](OCCO)[C@@H](O)[C@H]3O)c2n1` [Ticagrelor] + Oc1cc(Cl)ccc1Oc1ccc(Cl)cc1Cl [Triclosan], the Bliss interaction score in the test with S. aureus DSM 20231 worked out at 0.247.
